Assay results as given in US7560468B2, “Substituted 1,4,8-triazaspiro[4,5]decan-2-one compounds” (Gruenenthal GmbH, priority 2004, dated 2009).

The molecules below were run on batrachotoxin (BTX) binding site of the sodium channel (assay: Affinity to the batrachotoxin (BTX) binding site of the sodium channel). Settings: rat cerebrocortex synaptosomes, [3H]-batrachotoxinin A20 α-benzoate 10 nM; test concentration not given.

Molecule | BTX Inhibition
1-Allyl-3-isopropyl-2-oxo-1,4,8-triazaspiro[4,5]decan-8-thiocarboxylic acid (3,5-dichlorobenzol)amide [Example 180] | 54
1-Butyl-3-isopropyl-2-oxo-1,4,8-triazaspiro[4,5]decan-8-thiocarboxylic acid (3-chlorobenzol)amide [Example 142] | 63
1-Methyl-3-(2-methylsulfanylethyl)-2-oxo-1,4,8-triazaspiro[4,5]decan-8-thiocarboxylic acid (3-trifluoromethylbenzol)amide [Example 194] | 36
CC(C)C1NC2(CCN(S(=O)(=O)c3ccc(F)c(Cl)c3)CC2)N(CCOc2ccccc2)C1=O (stereo not shown) [Example 17, 8-(3-Chloro-4-fluorobenzolsulfonyl)-3-isopropyl-1-(2-phenoxy-ethyl)-1,4,8-triazaspiro[4,5]decan-2-one] | 41
CCCCN1C(=O)C(C(C)C)NC12CCN(S(=O)(=O)c1ccc(F)cc1F)CC2 (stereo not shown) [Example 19, 1-Butyl-8-(2,4-difluorobenzolsulfonyl)-3-isopropyl-1,4,8-triazaspiro[4,5]decan-2-one] | 30
Cc1ccc(S(=O)(=O)N2CCC3(CC2)NC(C(C)C)C(=O)N3CCOc2ccccc2)cc1 (stereo not shown) [Example 21, 3-Isopropyl-1-(2-phenoxy-ethyl)-8-(toluol-4-sulfonyl)-1,4,8-triazaspiro[4,5]decan-2-one] | 54
Cc1cc(S(=O)(=O)N2CCC3(CC2)NC(CC(C)C)C(=O)N3Cc2ccccc2)c(C)cc1Cl (stereo not shown) [Example 27, 1-Benzyl-8-(4-chloro-2,5-dimethylbenzolsulfonyl)-3-isobutyl-1,4,8-triazaspiro[4,5]decan-2-one] | 59
COc1ccc(S(=O)(=O)N2CCC3(CC2)NCC(=O)N3Cc2ccccc2F)cc1 [Example 64, 1-(2-Fluorobenzyl)-8-(4-methoxy-benzolsulfonyl)-1,4,8-triazaspiro[4,5]decan-2-one] | 42
C=CCN1C(=O)C(C(C)C)NC12CCN(S(=O)(=O)c1c(C)cc(C)cc1C)CC2 (stereo not shown) [Example 70, 1-Allyl-3-isopropyl-8-(2,4,6-trimethylbenzolsulfonyl)-1,4,8-triazaspiro[4,5]decan-2-one] | 60
C=CCN1C(=O)C(CCSC)NC12CCN(S(=O)(=O)c1ccc3c(c1)CN(C(=O)C(F)(F)F)CC3)CC2 (stereo not shown) [Example 78, 1-Allyl-3-(2-methylsulfanylethyl)-8-[2-(2,2,2-trifluoroacetyl)-1,2,3,4-tetrahydroisoquinolin-7-sulfonyl]-1,4,8-triazaspiro[4,5]decan-2-one] | 32
COc1ccc(CNC(=S)N2CCC3(CC2)NC(CCSC)C(=O)N3C)cc1 (stereo not shown) [Example 111, 1-Methyl-3-(2-methylsulfanylethyl)-2-oxo-1,4,8-triazaspiro[4,5]decan-8-thiocarboxylic acid 4-methoxy-benzylamide] | 51
CN1C(=O)C(Cc2ccccc2)NC12CCN(C(=S)NCc1cc(F)ccc1F)CC2 (stereo not shown) [Example 118, 3-Benzyl-1-methyl-2-oxo-1,4,8-triazaspiro[4,5]decan-8-thiocarboxylic acid (2,5-difluorobenzol)amide] | 42
C=CCNC(=S)N1CCC2(CC1)NC(C(C)C)C(=O)N2Cc1ccc(C(=O)OC)cc1 (stereo not shown) [Example 126, Methyl 4-(8-allylthiocarbamoyl-3-isopropyl-2-oxo-1,4,8-triazaspiro[4,5]dec-1-ylmethyl)benzoate] | 37
CCCCN1C(=O)C(CCSC)NC12CCN(C(=S)NCc1ccccc1OC)CC2 (stereo not shown) [Example 127, 1-Butyl-3-(2-methylsulfanylethyl)-2-oxo-1,4,8-triazaspiro[4,5]decan-8-thiocarboxylic acid (2-methoxy-benzol)amide] | 44
CSCCC1NC2(CCN(C(=S)NCc3ccc(Cl)cc3)CC2)N(C)C1=O (stereo not shown) [Example 133, 1-Methyl-3-(2-methylsulfanylethyl)-2-oxo-1,4,8-triazaspiro[4,5]decan-8-thiocarboxylic acid (4-chlorobenzol)amide] | 44
CSCCC1NC2(CCN(C(=S)NCc3ccc(F)cc3)CC2)N(C)C1=O (stereo not shown) [Example 134, 1-Methyl-3-(2-methylsulfanylethyl)-2-oxo-1,4,8-triazaspiro[4,5]decan-8-thiocarboxylic acid 4-fluorobenzylamide] | 50
CSCCC1NC2(CCN(C(=S)NCc3cc(F)ccc3F)CC2)N(C)C1=O (stereo not shown) [Example 138, 1-Methyl-3-(2-methylsulfanylethyl)-2-oxo-1,4,8-triazaspiro[4,5]decan-8-thiocarboxylic acid (2,5-difluorobenzol)amide] | 34
CC(=O)c1cccc(NC(=S)N2CCC3(CC2)NC(CC(C)C)C(=O)N3Cc2ccccc2C#N)c1 (stereo not shown) [Example 141, 1-(2-Cyanobenzyl)-3-isobutyl-2-oxo-1,4,8-triazaspiro[4,5]decan-8-thiocarboxylic acid (3-acetylbenzol)amide] | 50
CSCCC1NC2(CCN(C(=S)NCc3ccc(Cl)cc3)CC2)N(Cc2cccc(C#N)c2)C1=O (stereo not shown) [Example 185, 1-(3-Cyanobenzyl)-3-(2-methylsulfanylethyl)-2-oxo-1,4,8-triazaspiro[4,5]decan-8-thiocarboxylic acid 4-chlorobenzylamide] | 72
C#CCN1C(=O)C(CC(C)C)NC12CCN(C(=S)Nc1c(Cl)cccc1Cl)CC2 (stereo not shown) [Example 190, 3-Isobutyl-2-oxo-1-prop-2-ynyl-1,4,8-triazaspiro[4,5]decan-8-thiocarboxylic acid (2,6-dichlorobenzol)amide] | 53
COC(=O)c1ccc(CN2C(=O)C(C(C)C)NC23CCN(C(=S)NCc2ccc(Cl)cc2)CC3)cc1 (stereo not shown) [Example 191, Methyl 4-[8-(4-chlorobenzylthiocarbamoyl)-3-isopropyl-2-oxo-1,4,8-triazaspiro[4,5]dec-1-ylmethyl]-benzoate] | 74
CSCCC1NC2(CCN(C(=S)NC(C)c3ccccc3)CC2)N(Cc2ccc(F)cc2)C1=O (stereo not shown) [Example 196, 1-(4-Fluorobenzyl)-3-(2-methylsulfanylethyl)-2-oxo-1,4,8-triazaspiro[4,5]decan-8-thiocarboxylic acid (1-benzol-ethyl)amide] | 70
O=C1C(Cc2ccccc2)NC2(CCN(C(=S)NCc3ccc(Cl)cc3)CC2)N1Cc1ccccc1F (stereo not shown) [Example 197, 3-Benzyl-1-(2-fluorobenzyl)-2-oxo-1,4,8-triazaspiro[4,5]decan-8-thiocarboxylic acid 4-chlorobenzylamide] | 77
CC(C)C1NC2(CCN(C(=S)NCc3ccccc3)CC2)N(Cc2ccccc2)C1=O (stereo not shown) [Example 199, 1-Benzyl-3-isopropyl-2-oxo-1,4,8-triazaspiro[4,5]decan-8-thiocarboxylic acid benzylamide] | 44
C=CCN1C(=O)C(C(C)C)NC12CCN(C(=O)Nc1cc(F)ccc1F)CC2 (stereo not shown) [Example 209, 1-Allyl-3-isopropyl-2-oxo-1,4,8-triazaspiro[4,5]decan-8-carboxylic acid (2,5-difluorobenzol)amide] | 31
CC(C)CC1NC2(CCN(C(=O)Nc3cc(F)ccc3F)CC2)N(Cc2ccccc2C#N)C1=O (stereo not shown) [Example 218, 1-(2-Cyanobenzyl)-3-isobutyl-2-oxo-1,4,8-triazaspiro[4,5]decan-8-carboxylic acid (2,5-difluorobenzol)amide] | 40
CSCCC1NC2(CCN(C(=O)NCc3ccc(Cl)c(Cl)c3)CC2)N(Cc2ccc(F)cc2)C1=O (stereo not shown) [Example 228, 1-(4-Fluorobenzyl)-3-(2-methylsulfanylethyl)-2-oxo-1,4,8-triazaspiro[4,5]decan-8-carboxylic acid 3,4-dichlorobenzylamide] | 87
COC(=O)c1ccc(CN2C(=O)C(C(C)C)NC23CCN(C(=O)NCc2ccc(Cl)c(Cl)c2)CC3)cc1 (stereo not shown) [Example 232, Methyl 4-[8-(3,4-dichlorobenzylcarbamoyl)-3-isopropyl-2-oxo-1,4,8-triazaspiro[4,5]dec-1-ylmethyl]-benzoate] | 55
Methyl 4-[8-(2,6-dichlorobenzolthiocarbamoyl)-3-isopropyl-2-oxo-1,4,8-triazaspiro[4,5]dec-1-ylmethyl]-benzoate [Example 135] | 38

Each molecule was assayed against T1, 5-HT transporter (Rattus norvegicus, UniProt P31652) (assay: Inhibition of 5-HT uptake in synaptosomes). Settings: rat, 1 μM.
T1 construct: from tissue; host or cells: rat brain synaptosomes (marrow/medulla and pons), P2 fraction
Assay type: biochemical

T1 sequence (P31652 whole entry): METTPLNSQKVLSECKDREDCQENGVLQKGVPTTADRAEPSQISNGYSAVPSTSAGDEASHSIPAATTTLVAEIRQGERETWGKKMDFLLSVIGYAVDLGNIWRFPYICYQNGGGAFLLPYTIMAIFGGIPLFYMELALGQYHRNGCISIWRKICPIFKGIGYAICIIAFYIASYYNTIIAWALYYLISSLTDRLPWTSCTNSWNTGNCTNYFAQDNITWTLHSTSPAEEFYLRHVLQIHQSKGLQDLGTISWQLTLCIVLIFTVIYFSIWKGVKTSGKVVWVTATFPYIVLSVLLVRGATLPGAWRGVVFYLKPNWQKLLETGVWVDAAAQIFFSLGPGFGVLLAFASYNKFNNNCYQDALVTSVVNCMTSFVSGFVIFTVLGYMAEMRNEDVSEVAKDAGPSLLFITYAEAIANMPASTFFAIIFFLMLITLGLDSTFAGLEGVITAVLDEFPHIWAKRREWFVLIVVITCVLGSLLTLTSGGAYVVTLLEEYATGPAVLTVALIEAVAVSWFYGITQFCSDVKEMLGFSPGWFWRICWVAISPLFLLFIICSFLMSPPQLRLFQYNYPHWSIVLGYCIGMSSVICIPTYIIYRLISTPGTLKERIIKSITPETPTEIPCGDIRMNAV

Molecule | Uptake_5-HT, rat, 1 μM, % inhibition [%]
CC(C)C1NC2(CCN(S(=O)(=O)c3ccc([N+](=O)[O-])cc3)CC2)NC1=O (stereo not shown) [Example 1, 3-Isopropyl-8-(4-nitrobenzolsulfonyl)-1,4,8-triazaspiro[4,5]decan-2-one] | 55
CCCCN1C(=O)C(CCSC)NC12CCN(S(=O)(=O)c1ccc(C(C)=O)cc1)CC2 (stereo not shown) [Example 13, 8-(4-Acetylbenzolsulfonyl)-1-butyl-3-(2-methylsulfanylethyl)-1,4,8-triazaspiro[4,5]decan-2-one] | 56

Same assay, conditions: read-out: 5-HT uptake: Km; characteristic data of the 5-HT transporter

Molecule | Km [µM]
NCCc1c[nH]c2ccc(O)cc12 [Example 5-HT, serotonin, reference compound] | 0.084 ± 0.011

Same assay, conditions: read-out: Uptake_5-HT, rat, 1 μM, % inhibition

Molecule | inhibition at 1 µM [%]
CCCCN1C(=O)C(CCSC)NC12CCN(S(=O)(=O)c1ccc(Cl)s1)CC2 (stereo not shown) [Example 12, 1-Butyl-8-(5-chlorothiophen-2-sulfonyl)-3-(2-methylsulfanylethyl)-1,4,8-triazaspiro[4,5]decan-2-one] | 58
CCCCN1C(=O)C(C(C)C)NC12CCN(S(=O)(=O)c1ccccc1C(=O)OC)CC2 (stereo not shown) [Example 15, Methyl 2-(1-butyl-3-isopropyl-2-oxo-1,4,8-triazaspiro[4,5]decan-8-sulfonyl)benzoate] | 44
